Values joined by “and” are separate entries in the source; they are usually repeats but may differ in a detail not shown here. Equal entries are not always repeated. Where two headings read alike, the source gives them in different places.
Tests used:
[1] = target: T1, anthrax lethal factor (LF) (Bacillus anthracis, UniProt P15917)
[2] = target: T1, anthrax lethal factor (LF); conditions: for Km / kcat / kcat/Km: pH 7.4

T1 sequence (P15917 34-809 limits assumed): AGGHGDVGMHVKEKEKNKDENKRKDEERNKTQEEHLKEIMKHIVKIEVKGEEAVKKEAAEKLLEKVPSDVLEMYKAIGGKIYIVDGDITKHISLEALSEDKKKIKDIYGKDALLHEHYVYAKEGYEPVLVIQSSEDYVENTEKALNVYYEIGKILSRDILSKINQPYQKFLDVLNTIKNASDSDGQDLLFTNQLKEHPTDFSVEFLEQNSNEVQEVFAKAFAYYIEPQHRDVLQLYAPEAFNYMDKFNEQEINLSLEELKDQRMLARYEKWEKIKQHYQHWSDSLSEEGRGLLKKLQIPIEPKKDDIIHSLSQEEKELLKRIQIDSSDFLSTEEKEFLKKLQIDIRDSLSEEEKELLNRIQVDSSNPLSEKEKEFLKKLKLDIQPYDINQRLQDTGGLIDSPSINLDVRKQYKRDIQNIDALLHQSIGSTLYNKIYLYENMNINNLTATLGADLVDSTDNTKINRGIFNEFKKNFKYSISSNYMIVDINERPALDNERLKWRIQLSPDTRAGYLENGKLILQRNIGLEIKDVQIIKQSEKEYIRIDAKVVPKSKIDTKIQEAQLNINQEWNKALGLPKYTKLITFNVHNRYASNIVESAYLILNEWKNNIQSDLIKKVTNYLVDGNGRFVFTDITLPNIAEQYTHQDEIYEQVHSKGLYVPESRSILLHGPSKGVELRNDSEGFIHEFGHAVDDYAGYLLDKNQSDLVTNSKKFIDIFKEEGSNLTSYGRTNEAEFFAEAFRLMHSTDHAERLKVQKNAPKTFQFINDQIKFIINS

Substance | kcat/Km [1] | Km [2] | kcat [2] | kcat/Km [2] | fold higher kcat/Km than substrate No. 2 [2]
Mca-KKPTP-IQLN-Dnp [Substrate 1] | 1.5 min^−1 M^−1 and 1.5 ^a min^−1 M^−1 | – | – | – | –
Mca-KKVYP-YPMEK-Dnp [Substrate 2] | – | 58.5 µM | 74.17 s⁻¹ | 1.27 M⁻¹ s⁻¹ | –
Mca-KKWLM-YPLEK-Dnp [Substrate 3] | – | 16.9 µM | 39.83 s⁻¹ | 2.33 M⁻¹ s⁻¹ | about two-fold

— paper PMC3104405 (Biochemical and biophysical research communications, 2011)
